Test results taken from ChEMBL document CHEMBL3596164, “Inhibitory effects of hydroxylated cinnamoyl esters on lipid absorption and accumulation” (Bioorg Med Chem, 2015).
Active and inactive are the calls of the source. The calls are words filed in the database; no cut-off is given here.

How the values were obtained:
[1] = target: T1, Pancreatic triacylglycerol lipase (Sus scrofa) (UniProt P00591); assay: Inhibition of pig pancreatic lipase at 30 uM after 10 mins by spectrophotometry relative to control
T1 sequence (whole entry): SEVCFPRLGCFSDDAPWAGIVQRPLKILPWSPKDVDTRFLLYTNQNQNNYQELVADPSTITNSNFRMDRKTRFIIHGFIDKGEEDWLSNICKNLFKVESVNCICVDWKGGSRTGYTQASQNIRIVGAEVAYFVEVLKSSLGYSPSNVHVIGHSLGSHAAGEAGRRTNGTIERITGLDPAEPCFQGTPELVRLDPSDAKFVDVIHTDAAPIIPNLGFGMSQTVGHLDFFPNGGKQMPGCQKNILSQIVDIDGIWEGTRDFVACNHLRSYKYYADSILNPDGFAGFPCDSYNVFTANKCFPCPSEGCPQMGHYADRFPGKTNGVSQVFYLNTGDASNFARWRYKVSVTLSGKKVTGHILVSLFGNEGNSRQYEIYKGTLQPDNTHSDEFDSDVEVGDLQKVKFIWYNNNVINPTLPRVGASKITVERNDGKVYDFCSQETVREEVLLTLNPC

3T3-L1 = assay: (§1) Antiobesity activity in mouse 3T3L1 cells assessed as suppression of DIM-stimulated lipid accumulation at 4 uM after 7 days by Oil Red O staining method relative to control; type: functional
[2] = Cytotoxicity against mouse 3T3L1 cells at 1 to 4 uM after 7 days by MTT assay; type: cell-based; conditions: 3t3-l1, 168 h
[3] = as §1; type: functional; conditions: 3T3-L1, 168 h
[4] = target: T1, Pancreatic triacylglycerol lipase (Sus scrofa); assay: Inhibition of pig pancreatic lipase after 10 mins by spectrophotometry relative to control
Mus musculus [5] = assay: Reduction in plasma triglyceride level in corn oil-fed po dosed ddY mouse after 2 to 6 hrs relative to control; type: functional, organism-based
Mus musculus [6] = assay: Reduction in plasma triglyceride level in corn oil-fed ddY mouse at 30 mg/kg, po after 2 to 6 hrs relative to control; type: functional; parameters: scale not given: the % may be the effect or the level left
Mus musculus [7] = assay: Reduction in plasma triglyceride level in corn oil-fed ddY mouse at 150 mg/kg, po after 2 to 6 hrs relative to control; type: functional; parameters: scale not given: the % may be the effect or the level left
[8] = Antiobesity activity in mouse 3T3L1 cells assessed as suppression of DIM-stimulated lipid accumulation at 25 to 50 uM after 7 days by Oil Red O staining method relative to control; type: functional, 3T3-L1

With `O=C(/C=C/c1ccc(O)cc1)OCCc1ccccc1` the inhibition [1] was “inactive” and the inhibition (3T3-L1) was “inactive”.
In the case of `CC(C)=CCC/C(C)=C/COC(=O)/C=C/c1ccc(O)c(O)c1` [GERANYL CAFFEATE], the inhibition [1] was 62%, the Activity [2] was “Non-toxic” and the inhibition at 4 µM [3] was 20%.
For `CCCCCCCCCCOC(=O)/C=C/c1cccc(O)c1`, the inhibition [1] was “inactive” and the inhibition (3T3-L1) was “inactive”.
For `O=C(/C=C/c1ccc(O)cc1)OCCCCCCc1ccccc1`, the inhibition [1] was “inactive” and the inhibition (3T3-L1) was “inactive”.
With `CCCCCCCCCCOC(=O)/C=C/c1ccc(O)c(O)c1` the inhibition [1] was 38%, the ED50 [4] was over 40 µM and the inhibition [4] was “Dose-dependent effect”. For the same molecule, the Activity (Mus musculus [5]) was “Dose-dependent effect”, the Activity (Mus musculus [6]) was 78% and the Activity (Mus musculus [7]) was 69%. For the same molecule, the Activity [2] was “Non-toxic” and the inhibition at 4 µM [3] was 71%.
In the case of `O=C(/C=C/c1ccc(O)c(O)c1)OCCc1ccccc1` [CAFFEIC ACID PHENETHYL ESTER], the inhibition [1] was 62%, the ED50 [4] was 10 µM and the inhibition [4] was “Dose-dependent effect”. The Activity [2] was “Non-toxic”, the inhibition at 4 µM [3] was 11% and the “inhibition (INH)” value [8] was 24%.
With `CCCCCCCCCCOC(=O)/C=C/c1ccc(O)cc1` the inhibition [1] was “inactive” and the inhibition (3T3-L1) was “inactive”.
In the case of `CCCCCCCCCCOC(=O)/C=C/c1cc(O)c(O)c(O)c1`, the inhibition [1] was 92%, the ED50 [4] was 0.9 µM and the inhibition [4] was “Dose-dependent effect”. The Activity (Mus musculus [5]) was “Dose-dependent effect”, the Activity (Mus musculus [6]) was 73% and the Activity (Mus musculus [7]) was 57%. It also gave an inhibition at 4 µM [3] of 84%.
With `O=C(/C=C/c1ccc(O)c(O)c1)OCCCCCCc1ccccc1` the inhibition [1] was 54%, the ED50 [4] was 22 µM and the inhibition [4] was “Dose-dependent effect”. The Activity [2] was “Non-toxic” and the inhibition at 4 µM [3] was 46%.
